# Patent US7998977B2, “Inhibitors of AKT (protein kinase B)” (Eli Lilly and Company, priority 2006, dated 2011)
# Where a name gives a salt, the structure may show the parent alone.
# Assays:
# [1] = Effect of initial solution pH on rate of precipitation; type: physicochemical; settings: room temperature
# Excerpt: A pharmaceutical composition of 4-[5-(2-amino-ethanesulfonyl)-isoquinolin-7-yl]-phenol monohydrochloride hemihydrate comprises a non-reducing sugar and a pH adjusting agent. […] […]. Also, the rate at which precipitation takes place is pH dependent.
# [2] = test system: Phospho-GSK3b (pGSK3b); experiment: In vivo target inhibition by a single IV injection, U87MG tumors in nude mice; settings: Mus musculus, U-87 MG, U87MG glioblastoma tumors, single IV injection of 25 mg/kg, at 1 hour, read-out: inhibition of pGSK3b in tumor
# Description: In Vivo Target Inhibition Studies
# In Vivo Target Inhibition by a Single IV Injection:
# Exponentially growing U87MG cells derived from a human glioblastoma are implanted subcutaneously in the rear flank of nude mice. When the tumors reach the size of 200-250 mm^3, compounds are administered to the animals by a single IV injection in a dose-response study or in a time-course study. At the end of each treatment, animals are asphyxiated with CO2. Tumors are harvested by surgical excision, quickly frozen in liquid nitrogen and stored at −80° C. until analysis. Sera are prepared from blood harvested from the heart by cardiac puncture and stored at −80° C. until analysis.
# The Akt inhibitor is extracted from serum with acetonitrite/methanol and analyzed alongside an internal standard by LC/MS/MS. Tumors are homogenized in 2 volumes of a lysis buffer containing 25 mM Tris (pH 7.5), Roche complete protease inhibitors, and 1 mM vanadate with Powergen 125 homogenizer, then sequentially passed thorough an 18 gauge needle and a 23 gauge needle. Soluble cytoplasmic extracts are collected from the supernatant fraction after the lysates are centrifuged for 30 minutes at 20,000×g. Protein concentrations in the cytoplasmic extracts are determined with a BCA kit. Phospho-GSK3b (pGSK3b) in the soluble extracts is analyzed with the ELISA Kit.
# [3] = test system: H1155 cells derived from human non-small cell lung cancer; experiment: In vivo tumor growth inhibition, H1155 non-small cell lung cancer xenograft; set-up: species or system nude mice; settings: continuous infusion of 24 mg/kg/day for 4 days, measured at the end of the assay
# Description: (§1) In Vivo Tumor Growth Inhibition Studies
# (§2) Exponentially growing U87MG cells derived from a human glioblastoma or H1155 cells derived from human non-small cell lung cancer are implanted subcutaneously in the rear flank of nude mice. Three days after tumor cell implants, microsurgery is performed to cannulate catheter for continuous infusion via jugular vein. Example 1, formulated in D5W (5% dextrose in water) at various concentrations, is then infused into mice next day at 40 μL/hr for 4 days. Tumors are measured twice weekly until the study is terminated, usually at 24 days after the initial implants. Tumor growth inhibition is calculated by dividing the average tumor volume of the treated group by that of the vehicle-treated group.
# [4] = test system: Phospho-GSK3b (pGSK3b), a target of Akt in cells; experiment: Cell-based ELISA (cELISA) for detection of phospho-GSK3b in U87MG cells; settings: Homo sapiens, U-87 MG, 2 hr treatment, n=8, read-out: IC50, inhibition of pGSK3b
# Description: Cell-Based ELISA (cELISA) for the Detection of Phospho-GSK3b (pGSK3b)
# Exponentially grown U87MG cells derived from a human glioblastoma are seeded into 96-well plates and incubated overnight at 37° C. with 5% CO2. Ten concentrations of the compound of Example 1 are prepared from a 4 mM stock (in 100% DMSO) by 1:2 serial dilutions into the culture media. Equal volume of each of the serial dilutions is added directly to the cells. Treatment is stopped 2 hr later. At the end of the treatment, the culture media is removed, and the cells are washed once with ice-cold phosphate-buffered saline (PBS). The cells are fixed in PREFER according to vendor's procedure, followed by rinses in PBS/0.1% SDS and PBS/0.1% Triton X-100®, then overnight incubation in SEA Block Blocking buffer. The blocking step is followed by an overnight incubation of the cells with a rabbit antibody against pGSK3b/Ser9, followed by a goat anti-rabbit IgG. The pGSK3b is detected by SuperSignal ELISA Femto following the vendor's procedure.
# [5] = biological target: T1, Active human recombinant Akt1 (full-length) (Homo sapiens, UniProt P31749); experiment: Akt1 Phosphorylation Assay (competitive fluorescence polarization immunoassay, FPIA); type: biochemical; settings: 20 μM ATP, 60 min at room temperature, n=3; read-out: IC50, inhibition of Akt1 phosphorylation
# T1 construct: Active human recombinant Akt1 (full-length) purified from Sf9 insect cells; purchased Upstate Biotechnology, Inc; host or cells: Sf9 insect cells
# T1 sequence (P31749 whole entry): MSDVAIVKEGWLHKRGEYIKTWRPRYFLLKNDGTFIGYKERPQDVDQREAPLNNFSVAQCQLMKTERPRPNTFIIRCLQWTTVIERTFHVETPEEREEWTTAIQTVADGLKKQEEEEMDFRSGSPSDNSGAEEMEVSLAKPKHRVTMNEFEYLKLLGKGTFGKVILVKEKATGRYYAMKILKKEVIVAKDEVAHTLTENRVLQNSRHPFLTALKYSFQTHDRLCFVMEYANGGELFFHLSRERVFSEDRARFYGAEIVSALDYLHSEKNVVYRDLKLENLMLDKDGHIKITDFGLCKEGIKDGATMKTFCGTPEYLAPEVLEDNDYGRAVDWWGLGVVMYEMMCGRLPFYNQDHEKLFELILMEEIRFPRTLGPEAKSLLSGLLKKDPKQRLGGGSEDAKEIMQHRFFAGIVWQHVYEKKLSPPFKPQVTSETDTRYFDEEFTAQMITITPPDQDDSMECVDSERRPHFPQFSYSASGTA
# Excerpt: Akt1 Phosphorylation Assay
# The assay measures the phosphorylation of PKC alpha pseudo-substrate peptide by a Competitive Fluorescence Polarization Immunoassay (FPIA). The assay indirectly measures the concentration of phospho-peptide product formed in a reaction by measuring the change in the intensity of polarized light emitted from a fluorescently-labeled tracer peptide when displaced from a phospho-specific antibody by the phospho-peptide product. Calibration with a standard curve yields quantitative results.
# Active human recombinant Akt1 (full-length) purified from Sf9 insect cells is obtained from Upstate Biotechnology, Inc. Peptide Substrate (M.W.1561) is purchased. […]
# After 60 min at room temperature the reaction is terminated by adding 25 μL of Quench/Detection Mix containing 260 mM EDTA, 3.4 nM Fluorescein Tracer, and 7.5 nM Anti-Phosphoserine Antibody. The plates are incubated in darkness at room temperature for more than 3 hr, and then fluorescence polarization (at λex=485 nm, […]) is read using a Tecan Ultra plate reader. The concentration of phosphorylated product per well is calculated from millipolarization (mP) units using a prepared peptide competitor dilution series as a standard curve.
# [6] = test system: U87MG cells derived from a human glioblastoma; experiment: In vivo tumor growth inhibition, U87MG glioblastoma xenograft; set-up: species or system nude mice; settings: continuous infusion of 27 mg/kg/day for 4 days, measured at the end of the assay
# Description: as §1, §2
Compound,"Precipitation (ppt) ([1]; 0.001 N HCl/3% mannitol, initial pH 4.20, approx. 15 mg/mL)","Precipitation (ppt) ([1]; 0.0025 N HCl/3% mannitol, initial pH 3.91, approx. 15 mg/mL)","Precipitation (ppt) ([1]; 0.005 N HCl/3% mannitol, initial pH 3.58, approx. 15 mg/mL)","Precipitation (ppt) ([1]; 0.01 N HCl/3% mannitol, initial pH 3.19, approx. 15 mg/mL)","Precipitation (ppt) ([1]; 0.05 N HCl/3% mannitol, initial pH 1.68, approx. 15 mg/mL)",inhibition at 25 mg/kg [2],tumor growth inhibition [3],IC50 [4],IC50 [5],tumor growth inhibition [6]
Cl.Cl.NCCS(=O)(=O)c1cc(-c2ccc(O)cc2)cc2cnccc12.NCCS(=O)(=O)c1cc(-c2ccc(O)cc2)cc2cnccc12.O [4-[5-(2-Amino-ethanesulfonyl)-isoquinolin-7-yl]-phenol Monohydrochloride Hemihydrate],ppt after 24 hr,ppt after 36 hr,ppt after 48 hr,no ppt up to 96 hours,no ppt up to 96 hours,,,,,
"NCCS(=O)(=O)c1cc(-c2ccc(O)cc2)cc2cnccc12 [Example 1, 4-[5-(2-Amino-ethanesulfonyl)-isoquinolin-7-yl]-phenol di-hydrochloride Salt]",,,,,,76%,63%,2040 nM,45 nM,50%
